pIC50: −log10 of the molar value. Strand notation (5' to 3'): a small letter for the sugar, then the base; units joined by * are phosphorothioate-linked, units joined directly phosphodiester-linked; [ ] holds rarer units or linkages, { } end groups; capitals alone tell only the bases. [ms] = mesyl phosphoramidate linkage; e = 2'-O-(2-methoxyethyl) (MOE); k = constrained ethyl (cEt); [5mC] = 5-methylcytosine; d = 2'-deoxy (DNA)
How the values were obtained:
human APOE RNA [1] = assay: Dose-dependent inhibition of human APOE RNA in differentiated SH-SY5Y cells, free uptake, 5 days (Example 5); type: cell-based; settings: 5 days (Table 13)
Description: Modified oligonucleotides selected from the examples above were tested at various doses in differentiated SH-SY5Y cells. The modified oligonucleotides were tested in a series of experiments that had the same culture conditions.
Differentiated SH-SY5Y cells plated at a density of 10,000 cells per well were treated by free uptake with various concentrations of modified oligonucleotide as specified in the tables below. […] APOE RNA levels were measured using the human primer probe set RTS3073 (described herein above). APOE RNA levels were normalized to human PPIA. Human PPIA was amplified using human primer probe set mk_cycloA_2nd (described herein above). Results are presented as percent APOE RNA, relative to the amount of APOE RNA in untreated control cells (% UTC). The half maximal inhibitory concentration (IC50) of each modified oligonucleotide was calculated in GraphPad Prism 10 (GraphPad Software, San Diego, CA) and is also presented in the tables below.

human APOE RNA [2] = assay: Activity in APOE C57BL/6NTac-Apoeem7250 knock-in mice, single ICV bolus, 8 weeks (Example 11); type: in vivo; settings: for reduction of human APOE RNA in the cortex: APOE knock-in mouse model, 8 weeks post administration, assay of Example 11; for APOE RNA (% control) Cortex / APOE RNA (% control) Spinal Cord: single ICV bolus 300 μg, 8 weeks post treatment, normalized to mouse Ppia
How it was run: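 Human APOE knock-in C57BL/6NTac mice given one ICV bolus of 300 μg oligonucleotide; PBS-dosed group as control. At 8 weeks, cortex and spinal cord RNA measured by qRT-PCR (human probe RTS3073), normalized to mouse Ppia, expressed as % of PBS control.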

**Q.** With “TezTeoGeoGksTdsGdzAdzAdzTds^mCdsTdsTdsTdsAdzTksTksAesAesAes^mCe (antisense eT[ms]eTeGkG*dT*dG[ms]dA[ms]dA[ms]dT*d[5mC]*dT*dT*dT*dA[ms]kT*kT*eA*eA*eA*e[5mC]) [Compound No. 1809814]” as the substance, how does the “APOE RNA (% UTC)” value (human APOE RNA [1]; 5 nM) read?
**A.** 91 % UTC

**Q.** And the “APOE RNA (% UTC)” value (human APOE RNA [1]; 13 nM)?
**A.** 66 % UTC

**Q.** And the “APOE RNA (% UTC)” value (human APOE RNA [1]; 33 nM)?
**A.** 61 % UTC

**Q.** And the “APOE RNA (% UTC)” value (human APOE RNA [1]; 82 nM)?
**A.** 63 % UTC

**Q.** What about the “APOE RNA (% UTC)” value (human APOE RNA [1]; 205 nM) of the same substance?
**A.** 47 % UTC

**Q.** What about the “APOE RNA (% UTC)” value (human APOE RNA [1]; 512 nM) of the same substance?
**A.** 53 % UTC

**Q.** And the “APOE RNA (% UTC)” value (human APOE RNA [1]; 1,280 nM)?
**A.** 39 % UTC

**Q.** And the “APOE RNA (% UTC)” value (human APOE RNA [1]; 3,200 nM)?
**A.** 39 % UTC

**Q.** What about the “APOE RNA (% UTC)” value (human APOE RNA [1]; 8,000 nM) of the same substance?
**A.** 41 % UTC

**Q.** And the “APOE RNA (% UTC)” value (human APOE RNA [1]; 20,000 nM)?
**A.** 33 % UTC

**Q.** What about the pIC50 (human APOE RNA [1]) of the same substance?
**A.** 6.26

**Q.** What about the “reduction of human APOE RNA in the cortex” value (human APOE RNA [2]) of the same substance?
**A.** 64%

**Q.** What about the “APOE RNA (% control) Cortex” value (human APOE RNA [2]) of the same substance?
**A.** 36 % control

**Q.** What about the “APOE RNA (% control) Spinal Cord” value (human APOE RNA [2]) of the same substance?
**A.** 33 % control

**Q.** With “Aks^mCeoTeoTesGesGksTdsGdzAdzAdzTds^mCdsTdsTdsTdsAdzTksTksAesAe (kA*e[5mC]eTeT*eG*kG*dT*dG[ms]dA[ms]dA[ms]dT*d[5mC]*dT*dT*dT*dA[ms]kT*kT*eA*eA) [Compound No. 1809635]” as the substance, how does the “APOE RNA (% UTC)” value (human APOE RNA [1]; 5 nM) read?
**A.** 67 % UTC

**Q.** And the “APOE RNA (% UTC)” value (human APOE RNA [1]; 13 nM)?
**A.** 62 % UTC

**Q.** What about the “APOE RNA (% UTC)” value (human APOE RNA [1]; 33 nM) of the same substance?
**A.** 52 % UTC

**Q.** And the “APOE RNA (% UTC)” value (human APOE RNA [1]; 82 nM)?
**A.** 43 % UTC

**Q.** What about the “APOE RNA (% UTC)” value (human APOE RNA [1]; 205 nM) of the same substance?
**A.** 33 % UTC

**Q.** What about the “APOE RNA (% UTC)” value (human APOE RNA [1]; 512 nM) of the same substance?
**A.** 27 % UTC

**Q.** What about the “APOE RNA (% UTC)” value (human APOE RNA [1]; 1,280 nM) of the same substance?
**A.** 40 % UTC

**Q.** What about the “APOE RNA (% UTC)” value (human APOE RNA [1]; 3,200 nM) of the same substance?
**A.** 28 % UTC

**Q.** What about the “APOE RNA (% UTC)” value (human APOE RNA [1]; 8,000 nM) of the same substance?
**A.** 20 % UTC

**Q.** And the “APOE RNA (% UTC)” value (human APOE RNA [1]; 20,000 nM)?
**A.** 20 % UTC

**Q.** And the pIC50 (human APOE RNA [1])?
**A.** 7.30

**Q.** What about the “reduction of human APOE RNA in the cortex” value (human APOE RNA [2]) of the same substance?
**A.** 74%

**Q.** And the “APOE RNA (% control) Cortex” value (human APOE RNA [2])?
**A.** 26 % control

**Q.** And the “APOE RNA (% control) Spinal Cord” value (human APOE RNA [2])?
**A.** 15 % control
